{"source": "paper PMC5575657", "about": "“Characterization and Expression Profiling of Camellia sinensis Cinnamate 4-hydroxylase Genes in Phenylpropanoid Pathways” (Genes, 2017)", "test_in_all_cases": "HPLC of p-coumaric acid formed in yeast culture", "type_in_all_cases": "cell-based", "settings_in_all_cases": "0.2 mM substrate fed to yeast culture, 28 °C, 1 h; product p-coumaric acid; empty vector control", "key": {"CsC4Hc": {"molecular_target": "T1, CsC4Hc (Camellia sinensis, UniProt A0A286QXW5)", "T1 construct": "gene C4Hc; cloning reverse primer keeps the stop codon", "T1 sequence (A0A286QXW5 1-544)": "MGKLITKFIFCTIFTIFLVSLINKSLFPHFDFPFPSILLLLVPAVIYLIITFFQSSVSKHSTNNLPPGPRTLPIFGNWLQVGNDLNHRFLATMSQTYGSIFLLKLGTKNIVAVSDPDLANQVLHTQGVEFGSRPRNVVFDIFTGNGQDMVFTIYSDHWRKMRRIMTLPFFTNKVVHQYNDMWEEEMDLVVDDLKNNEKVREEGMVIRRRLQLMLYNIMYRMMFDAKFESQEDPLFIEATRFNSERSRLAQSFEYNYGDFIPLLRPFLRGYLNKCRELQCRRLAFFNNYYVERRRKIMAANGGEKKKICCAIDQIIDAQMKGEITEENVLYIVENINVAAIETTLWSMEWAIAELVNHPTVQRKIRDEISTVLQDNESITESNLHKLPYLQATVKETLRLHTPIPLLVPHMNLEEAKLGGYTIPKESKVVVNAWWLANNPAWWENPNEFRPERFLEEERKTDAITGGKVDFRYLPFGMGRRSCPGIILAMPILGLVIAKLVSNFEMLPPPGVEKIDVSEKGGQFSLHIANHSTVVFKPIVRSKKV"}, "CsC4Hb": {"molecular_target": "T2, CsC4Hb (Camellia sinensis, UniProt A0A286QXW8)", "T2 construct": "gene C4Hb; cloning reverse primer keeps the stop codon", "T2 sequence (A0A286QXW8 1-505)": "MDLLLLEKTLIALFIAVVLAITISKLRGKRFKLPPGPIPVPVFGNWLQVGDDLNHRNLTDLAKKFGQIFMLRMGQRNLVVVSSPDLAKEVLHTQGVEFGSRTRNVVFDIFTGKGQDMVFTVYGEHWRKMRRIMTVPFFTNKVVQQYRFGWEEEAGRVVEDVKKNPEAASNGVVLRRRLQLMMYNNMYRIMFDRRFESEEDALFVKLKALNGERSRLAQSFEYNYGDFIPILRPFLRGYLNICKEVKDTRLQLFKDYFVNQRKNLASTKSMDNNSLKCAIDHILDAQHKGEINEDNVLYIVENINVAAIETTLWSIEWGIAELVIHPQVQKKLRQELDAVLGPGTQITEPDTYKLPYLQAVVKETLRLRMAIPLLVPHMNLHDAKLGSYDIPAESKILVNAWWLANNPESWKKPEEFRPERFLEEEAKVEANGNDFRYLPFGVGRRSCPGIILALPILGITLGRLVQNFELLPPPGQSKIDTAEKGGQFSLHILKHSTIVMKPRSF"}, "CsC4Ha": {"molecular_target": "T3, CsC4Ha (Camellia sinensis, UniProt A0A286QXW9)", "T3 construct": "gene C4Ha; cloning reverse primer keeps the stop codon", "T3 sequence (A0A286QXW9 1-505)": "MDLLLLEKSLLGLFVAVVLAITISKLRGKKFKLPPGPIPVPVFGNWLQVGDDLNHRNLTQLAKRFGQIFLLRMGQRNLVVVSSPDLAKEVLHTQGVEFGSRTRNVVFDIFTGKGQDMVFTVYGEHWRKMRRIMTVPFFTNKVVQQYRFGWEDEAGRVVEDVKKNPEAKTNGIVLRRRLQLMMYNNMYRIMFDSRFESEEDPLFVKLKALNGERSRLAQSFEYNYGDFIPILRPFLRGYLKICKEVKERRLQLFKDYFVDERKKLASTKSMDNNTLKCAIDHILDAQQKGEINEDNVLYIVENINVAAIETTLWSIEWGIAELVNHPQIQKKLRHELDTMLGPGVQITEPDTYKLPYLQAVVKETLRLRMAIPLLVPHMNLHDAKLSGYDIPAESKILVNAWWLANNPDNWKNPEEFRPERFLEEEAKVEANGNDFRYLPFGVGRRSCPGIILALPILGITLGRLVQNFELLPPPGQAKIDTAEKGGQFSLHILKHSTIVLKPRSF"}}}
{"smiles": "O=C(O)/C=C/c1ccccc1", "note": "[trans-cinnamic acid]", "values": [{"measurement": "HPLC of p-coumaric acid formed in yeast culture", "setting": "CsC4Hc", "value": "three recombinant CsC4Hs are able to convert t-cinnamate to yield p-coumarate when expressed in yeast"}, {"measurement": "HPLC of p-coumaric acid formed in yeast culture", "setting": "CsC4Hb", "value": "three recombinant CsC4Hs are able to convert t-cinnamate to yield p-coumarate when expressed in yeast"}, {"measurement": "HPLC of p-coumaric acid formed in yeast culture", "setting": "CsC4Ha", "value": "three recombinant CsC4Hs are able to convert t-cinnamate to yield p-coumarate when expressed in yeast"}]}
